Like-named read-outs stand apart in the source and are kept apart here.

The conditions of data set [1]: 0.1% aqueous solution at 25° C.; water 72 dynes/cm; cited from earlier work.
Data set [2] in a line: Reduction in surface tension of water. The format is physicochemical. The procedure:
The ‘liquid alcohol ether’ as used herein like 2-ethyl hexyl glyceryl ether is also a surfactant where the hydrophobe is provided by octyl group and the hydrophilic portion is the two hydroxyl groups of glycerine moiety and the ether linkage.
A mixture of octanoic acid (114 g, […]), BHT (0.3 g) and monoethanol amine (61 g, […]) is stirred under nitrogen blanket in a pressure vessel at 140° C. for 4 hr and then the temperature is raised to 165° C. for additional one hour. At this stage, acid value is normally found to be around 5 or less. The reaction was then cooled under mild vacuum to 60° C. and the molten mass is converted into off-white flakes (148 g, 95%) by pouring it on a glass plate. (Melting point 62-64° C., acid value 5, IR (KBr): 1640 cm^−1 (carbonyl of amide), 1556 cm^−1, 2919 cm^−1, 3289 cm^−1 (NH of amide) Reduction is surface tension of water: 0.05% solution, 38.5 dyne/cm, 0.1% solution 30.5 dyne/cm.

The subject of data set [3] is Escherichia coli ATCC 10142. In words: Minimum inhibitory concentration. The format is cell-based. The note with it: ATCC10142.
Data set [4] deals with Bacillus subtilis ATCC 9372. In words: microbe, parasite or virus in culture. Particulars: ATCC9372. Format: cell-based.
The test system of data set [5] is all types of microbes (Gram positive, Gram negative bacteria, yeast and mould; the chosen eight organisms). In words: Minimum inhibitory concentration, whole panel. Format: cell-based. Particulars: up to 1.0% concentration; bacteria, yeast and mould.
Data set [6] deals with Staphylococcus aureus ATCC 6538S. Briefly: Minimum inhibitory concentration. Format: cell-based. Particulars: ATCC6538S.
Data set [7] relates to Aspergillus niger ATCC 16404. In words: Minimum inhibitory concentration. The format is cell-based. Particulars: ATCC16404, Aspergillus niger.
Data set [8] concerns Malassezia furfur MTCC 1374. In words: Minimum inhibitory concentration. The format is cell-based. The note with it: MTCC1374.
Data set [9] concerns Candida albicans ATCC 10231. Briefly: Minimum inhibitory concentration. The format is cell-based. Particulars: ATCC10231.
The subject of data set [10] is Propionibacterium acnes MTCC 1951. Briefly: Minimum inhibitory concentration. Format: cell-based. The note with it: Cutibacterium acnes, MTCC1951.
The subject of data set [11] is Pseudomonas aeruginosa Immuno type IV. In words: Minimum inhibitory concentration. The format is cell-based.

For the molecule `CCCCC(CC)COCC(O)CO` (centres unmarked) [2-ethyl hexyl glyceryl ether, 3-(2-ethylhexyl) oxy 1,2-propanediol], the “Surface tension of water” value in data set [1] is given as 32 dynes/cm.
`CCCCCCCC(=O)NCCO` [Octanoyl MEA amide, N-(2-hydroxylethyl)caprylic acid amide]: the “Surface tension of water” value was 38 dynes/cm in data set [2] (0.05% level) and 30 dynes/cm in data set [2] (0.1% concentration). Further, the MIC in data set [3] (Escherichia coli ATCC 10142, read-out: MINIMUM INHIBITORY CONCENTRATION) was greater than 10000 µg/mL; in data set [3] (in Preservative Blend No 2 (10:10:80), Escherichia coli, read-out: Concentration of individual component at MIC of Preservative Blend No 2), 300 µg/mL; in data set [4] (Bacillus subtilis ATCC 9372, read-out: MINIMUM INHIBITORY CONCENTRATION) it was greater than 10000 µg/mL; in [4] (in Preservative Blend No 2 (10:10:80), Bacillus subtilis, read-out: Concentration of individual component at MIC of Preservative Blend No 2) it was 200 µg/mL; in [6] (Staphylococcus aureus ATCC 6538S, read-out: MINIMUM INHIBITORY CONCENTRATION), greater than 10000 µg/mL; in [6] (in Preservative Blend No 2 (10:10:80), Staphylococcus aureus, read-out: Concentration of individual component at MIC of Preservative Blend No 2) it was 300 µg/mL. In addition, the MIC was 200 µg/mL in data set [7] (in Preservative Blend No 2 (10:10:80), read-out: Concentration of individual component at MIC of Preservative Blend No 2); greater than 10000 µg/mL in data set [7] (read-out: MINIMUM INHIBITORY CONCENTRATION); greater than 10000 µg/mL in [8] (Malassezia furfur MTCC 1374, read-out: MINIMUM INHIBITORY CONCENTRATION); 400 µg/mL in [8] (in Preservative Blend No 2 (10:10:80), Malassezia furfur, read-out: Concentration of individual component at MIC of Preservative Blend No 2); greater than 10000 µg/mL in data set [9] (Candida albicans ATCC 10231, read-out: MINIMUM INHIBITORY CONCENTRATION); 200 µg/mL in data set [9] (in Preservative Blend No 2 (10:10:80), Candida albicans, read-out: Concentration of individual component at MIC of Preservative Blend No 2). The MIC in data set [10] (Propionibacterium acnes MTCC 1951, read-out: MINIMUM INHIBITORY CONCENTRATION) is greater than 10000 µg/mL; in [10] (in Preservative Blend No 2 (10:10:80), Propionibacterium acnes, read-out: Concentration of individual component at MIC of Preservative Blend No 2), 200 µg/mL; in data set [11] (Pseudomonas aeruginosa Immuno type IV, read-out: MINIMUM INHIBITORY CONCENTRATION), greater than 10000 µg/mL; in data set [11] (in Preservative Blend No 2 (10:10:80), Pseudomonas aeruginosa, read-out: Concentration of individual component at MIC of Preservative Blend No 2), 300 µg/mL. For the same molecule, the “Antimicrobial activity of the ingredient alone” value in [5] was “did not exhibit any antibacterial activity”.
